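Exposure lasted 48 hours, with cells grown in 96-well plates and compounds tested at five concentrations. TGI: total growth inhibition.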
Columns and labels:
Assay in all cases: growth of human tumour cells (NCI), 48 h
SF-539 CNS = tested on: SF-539 CNS
SK-MEL-5 melanoma = tested on: SK-MEL-5 melanoma
U251 CNS = tested on: U251 CNS
NCI-H23 lung = tested on: NCI-H23 lung
A498 renal = tested on: A498 renal
SF-295 CNS = tested on: SF-295 CNS
SN12C renal = tested on: SN12C renal
UO-31 renal = tested on: UO-31 renal
PC-3 prostate = tested on: PC-3 prostate
MDA-N = tested on: MDA-N
SF-268 CNS = tested on: SF-268 CNS
OVCAR-8 ovarian = tested on: OVCAR-8 ovarian
UACC-257 melanoma = tested on: UACC-257 melanoma
MCF7 breast = tested on: MCF7 breast
T-47D breast = tested on: T-47D breast
NCI-H522 lung = tested on: NCI-H522 lung

Structure (SMILES) | TGI (SF-539 CNS) | TGI (SK-MEL-5 melanoma) | TGI (U251 CNS) | TGI (NCI-H23 lung) | TGI (A498 renal) | TGI (SF-295 CNS) | TGI (SN12C renal) | TGI (UO-31 renal) | TGI (PC-3 prostate) | TGI (MDA-N) | TGI (SF-268 CNS) | TGI (OVCAR-8 ovarian) | TGI (UACC-257 melanoma) | TGI (MCF7 breast) | TGI (T-47D breast) | TGI (NCI-H522 lung)
Cc1c2c(n3c(nc4ccccc43)c1C#N)NCC2 | > 10 µM | > 10 µM | > 10 µM | > 10 µM | > 10 µM | > 10 µM | > 10 µM | > 10 µM | > 10 µM | > 10 µM | > 10 µM | > 10 µM | > 10 µM | > 10 µM | > 10 µM | –
CC(c1ccccc1)n1c2ccccc2c2c(N)ncnc21 (configuration not stated) | 30.8 µM | 33.9 µM | 30.5 µM | 39.5 µM | 30.3 µM | 36.6 µM | – | 22.2 µM | 34.4 µM | 51.9 µM | 43.5 µM | 31.8 µM | 31.2 µM | 37.2 µM | 59.6 µM | 31.2 µM
CCCCCCC(O)C(=O)OC1C2C(CC1(C)C)C(O)C13OC1C(O)C1(CO1)[C@@]23C (some centres not stated) | – | 40.9 µM | > 100 µM | > 100 µM | – | > 100 µM | > 100 µM | > 100 µM | > 100 µM | > 100 µM | 53.6 µM | > 100 µM | > 100 µM | > 100 µM | > 100 µM | > 100 µM
CCCC1(N2C(=O)c3ccc4c5c(ccc(c35)C2=O)N(C2(CCC)CCCCC2)C4=O)CCCCC1 | > 100 µM | > 100 µM | > 100 µM | > 100 µM | > 100 µM | > 100 µM | > 100 µM | > 100 µM | > 100 µM | > 100 µM | > 100 µM | > 100 µM | – | > 100 µM | > 100 µM | > 100 µM
Cn1c2ccccc2c(=NNc2ccc(S(=O)(=O)N=C(N)N)cc2)c2ccccc21 | 27.3 µM | 20.1 µM | 21.6 µM | 26.9 µM | – | 31.1 µM | 21.9 µM | 22 µM | 21.3 µM | 25.1 µM | 22.1 µM | 26.4 µM | 34.9 µM | 12.9 µM | 35.6 µM | 11 µM
O=c1[nH]nc(-c2ccccc2)n1-n1cccc1 | – | > 100 µM | > 100 µM | – | > 100 µM | > 100 µM | > 100 µM | > 100 µM | > 100 µM | > 100 µM | > 100 µM | > 100 µM | > 100 µM | > 100 µM | > 100 µM | > 100 µM
O=C1NC(NNc2ccccc2)=N/C1=C\c1ccco1 | – | > 100 µM | 39.8 µM | 45.9 µM | > 100 µM | > 100 µM | 49.9 µM | 55.2 µM | 71.5 µM | > 100 µM | 75.2 µM | 32.7 µM | 63.5 µM | 34 µM | 44.9 µM | 27.8 µM
c1cc2cc(Cc3ccc4[nH]ccc4c3)ccc2[nH]1 | 32.9 µM | 30 µM | 38.5 µM | 39.8 µM | 37.3 µM | 78.9 µM | 31.7 µM | 34.6 µM | 30.1 µM | 26.5 µM | 55.7 µM | – | 57.7 µM | 32.3 µM | 53.7 µM | 34.5 µM
O=C(Cn1c2ccc(Br)cc2c2nc3ccccc3nc21)N1CCOCC1 | – | > 100 µM | > 100 µM | > 100 µM | > 100 µM | > 100 µM | > 100 µM | > 100 µM | > 100 µM | > 100 µM | > 100 µM | > 100 µM | > 100 µM | – | > 100 µM | –
CCN(CC)CCC(=O)Nc1ccc2sc3ccccc3c(=O)c2n1 | 33.4 µM | 33.8 µM | 28.8 µM | 43.8 µM | – | 48.9 µM | 77.8 µM | 22.2 µM | 40.9 µM | 30.3 µM | 48.5 µM | 62.4 µM | 37.5 µM | 36.5 µM | 45.9 µM | 30.4 µM
CC1=C(N2CC2)C(=O)C(C)=C(N2CC2)C1=O | 0.808 µM | 0.363 µM | 0.994 µM | 0.19 µM | 0.403 µM | 1.47 µM | 1.59 µM | 0.353 µM | – | 2.9 µM | 1.08 µM | 2.3 µM | 2.77 µM | 1.46 µM | 15.5 µM | 0.423 µM
CCOC(OCC)[C@@H]1C[C@@H]2N(O[C@H](OC3CCCC3(c3ccccc3)c3ccccc3)[C@H](OC(C)=O)[C@@]2(CC)Cc2ccc(OC)c(OC)c2)O1 (some centres not stated) | > 100 µM | > 100 µM | > 100 µM | > 100 µM | – | > 100 µM | > 100 µM | > 100 µM | > 100 µM | > 100 µM | > 100 µM | – | > 100 µM | > 100 µM | > 100 µM | > 100 µM
CCOC(=O)Cc1ccc(Nc2nc3cc(F)c(F)cc3nc2C(=O)OCC)cc1 | > 100 µM | > 100 µM | > 100 µM | 66.5 µM | – | > 100 µM | > 100 µM | 3.15 µM | > 100 µM | > 100 µM | > 100 µM | > 100 µM | > 100 µM | > 100 µM | > 100 µM | 35.5 µM
CSc1c(S(C)=O)c2ccccc2n1C (configuration not stated) | > 100 µM | > 100 µM | – | > 100 µM | > 100 µM | > 100 µM | > 100 µM | > 100 µM | > 100 µM | > 100 µM | > 100 µM | > 100 µM | > 100 µM | > 100 µM | > 100 µM | > 100 µM
Cc1ccc(/C=C2\CCS(=O)(=O)c3ccccc3C2=O)cc1 | > 100 µM | – | 30.8 µM | 29.6 µM | 36.5 µM | 40.5 µM | 45.1 µM | 25.4 µM | 45.3 µM | 77.2 µM | 51.6 µM | 30.7 µM | 35.1 µM | 34.8 µM | 32.6 µM | –
CCOC(=O)NC(C(F)(F)F)(C(F)(F)F)P(=O)(OCC)OCC | – | – | 79.5 µM | > 100 µM | > 100 µM | > 100 µM | > 100 µM | 85.5 µM | > 100 µM | > 100 µM | > 100 µM | > 100 µM | – | > 100 µM | > 100 µM | 36.9 µM

Source: PubChem BioAssay (NCI)
